Reference: ChEMBL document CHEMBL4680060, “Polybasic peptide-levofloxacin conjugates potentiate fluoroquinolones and other classes of antibiotics against multidrug-resistant Gram-negative bacteria” (Medchemcomm, 2019)
≈ marks a conversion by molar mass, not a printed value. Calls of active or inactive are those of the source. No cut-off for these calls is given here.

Key:
Pseudomonas aeruginosa [1] = assay: Synergistic antibacterial activity against multidrug resistant Pseudomonas aeruginosa PA262 in presence of moxifloxacin by Checkerboard assay; format: functional, organism-based
Pseudomonas aeruginosa [2] = assay: Synergistic antibacterial activity against multidrug resistant Pseudomonas aeruginosa PA100036 in presence of levofloxacin by Checkerboard assay; format: functional, organism-based
Acinetobacter baumannii [3] = assay: Antibacterial activity against Acinetobacter baumannii clinical isolate CAN-ICU 63169 assessed as inhibition of visible growth incubated for 18 hrs by CLSI protocol based microbroth dilution method; format: functional
Escherichia coli [4] = assay: Synergistic antibacterial activity against Escherichia coli 94474 in presence of levofloxacin by Checkerboard assay; format: functional, organism-based
Pseudomonas aeruginosa [5] = assay: Potentiation of ciprofloxacin-induced antibacterial activity against wild type Pseudomonas aeruginosa PAO1 assessed as fold reduction in ciprofloxacin MIC measured after 18 hrs by CLSI protocol based microbroth dilution method relative to ciprofloxacin MIC; format: functional
Pseudomonas aeruginosa [6] = assay: Potentiation of ciprofloxacin-induced antibacterial activity against wild type Pseudomonas aeruginosa PAO1 assessed as ciprofloxacin MIC measured after 18 hrs by CLSI protocol based microbroth dilution method (reference value: 0.125 ug/ml); format: functional
Pseudomonas aeruginosa [7] = assay: Synergistic antibacterial activity against wild type Pseudomonas aeruginosa PAO1 in presence of moxifloxacin by Checkerboard assay; format: functional, organism-based
Escherichia coli [8] = assay: Synergistic antibacterial activity against Escherichia coli ATCC 25922 in presence of levofloxacin by Checkerboard assay; format: functional, organism-based
Streptococcus pneumoniae = assay: Antibacterial activity against Streptococcus pneumoniae ATCC 49619 assessed as inhibition of visible growth incubated for 18 hrs by CLSI protocol based microbroth dilution method; format: functional
Pseudomonas aeruginosa [9] = assay: Synergistic antibacterial activity against multidrug resistant Pseudomonas aeruginosa PA259 in presence of ciprofloxacin by Checkerboard assay; format: functional, organism-based
Escherichia coli [10] = assay: Antibacterial activity against Escherichia coli ATCC 25922 assessed as inhibition of visible growth incubated for 18 hrs by CLSI protocol based microbroth dilution method; format: functional
Pseudomonas aeruginosa [11] = assay: Additive antibacterial activity against MexAB-OprM, MexCD-OprJ, MexEF-OprN, MexJK and MexXY efflux pumps deficient Pseudomonas aeruginosa PAO750 in presence of ciprofloxacin by Checkerboard assay; format: functional, organism-based
Escherichia coli [12] = assay: Synergistic antibacterial activity against Escherichia coli 94474 in presence of moxifloxacin by Checkerboard assay; format: functional, organism-based
Pseudomonas aeruginosa [13] = assay: Potentiation of moxifloxacin-induced antibacterial activity against wild type Pseudomonas aeruginosa PAO1 assessed as moxifloxacin MIC measured after 18 hrs by CLSI protocol based microbroth dilution method (reference value: 1 ug/ml); format: functional
Pseudomonas aeruginosa [14] = assay: Potentiation of trimethoprim-induced antibacterial activity against wild type Pseudomonas aeruginosa PAO1 measured after 18 hrs by CLSI protocol based microbroth dilution method; format: functional, organism-based
Enterococcus faecalis = assay: Antibacterial activity against Enterococcus faecalis ATCC 29212 assessed as inhibition of visible growth incubated for 18 hrs by CLSI protocol based microbroth dilution method; format: functional
Pseudomonas aeruginosa [15] = assay: Synergistic antibacterial activity against multidrug resistant Pseudomonas aeruginosa PA260 in presence of moxifloxacin by Checkerboard assay; format: functional, organism-based
Escherichia coli [16] = assay: Additive antibacterial activity against Escherichia coli 94474 in presence of ciprofloxacin by Checkerboard assay; format: functional, organism-based
[17] = tested on: Staphylococcus epidermidis; assay: Antibacterial activity against methicillin-susceptible Staphylococcus epidermidis clinical isolate CANWARD-2008 81388 assessed as inhibition of visible growth incubated for 18 hrs by CLSI protocol based microbroth dilution method; format: functional
Acinetobacter baumannii [18] = assay: Synergistic antibacterial activity against multidrug resistant Acinetobacter baumannii AB027 assessed as fractional inhibitory concentration index in presence of levofloxacin by Checkerboard assay; format: functional
Pseudomonas aeruginosa [19] = assay: Synergistic antibacterial activity against wild type Pseudomonas aeruginosa PAO1 assessed as fractional inhibitory concentration index in presence of levofloxacin by Checkerboard assay; format: functional
Pseudomonas aeruginosa [20] = assay: Potentiation of aztreonam-induced antibacterial activity against wild type Pseudomonas aeruginosa PAO1 measured after 18 hrs by CLSI protocol based microbroth dilution method; format: functional, organism-based
Staphylococcus aureus [21] = assay: Antibacterial activity against methicillin-resistant Staphylococcus aureus clinical isolate CAN-ICU 61589 assessed as inhibition of visible growth incubated for 18 hrs by CLSI protocol based microbroth dilution method; format: functional
Pseudomonas aeruginosa [22] = assay: Potentiation of vancomycin-induced antibacterial activity against wild type Pseudomonas aeruginosa PAO1 measured after 18 hrs by CLSI protocol based microbroth dilution method; format: functional, organism-based
Staphylococcus aureus [23] = assay: Antibacterial activity against methicillin-resistant Staphylococcus aureus ATCC 33592 assessed as inhibition of visible growth incubated for 18 hrs by CLSI protocol based microbroth dilution method; format: functional
Escherichia coli [24] = assay: Additive antibacterial activity against Escherichia coli 94393 in presence of ciprofloxacin by Checkerboard assay; format: functional, organism-based
Pseudomonas aeruginosa [25] = assay: Synergistic antibacterial activity against multidrug resistant Pseudomonas aeruginosa PA259 in presence of moxifloxacin by Checkerboard assay; format: functional, organism-based
Pseudomonas aeruginosa [26] = assay: Synergistic antibacterial activity against wild type Pseudomonas aeruginosa PAO1 in presence of ciprofloxacin by Checkerboard assay; format: functional, organism-based
Pseudomonas aeruginosa [27] = assay: Potentiation of ceftazidime-induced antibacterial activity against wild type Pseudomonas aeruginosa PAO1 measured after 18 hrs by CLSI protocol based microbroth dilution method; format: functional, organism-based
[28] = tested on: Stenotrophomonas maltophilia; assay: Antibacterial activity against Stenotrophomonas maltophilia clinical isolate CAN-ICU 62584 assessed as inhibition of visible growth incubated for 18 hrs by CLSI protocol based microbroth dilution method; format: functional
Pseudomonas aeruginosa [29] = assay: Potentiation of moxifloxacin-induced antibacterial activity against wild type Pseudomonas aeruginosa PAO1 assessed as […] measured after 18 hrs by CLSI protocol based microbroth dilution method relative to moxifloxacin MIC; format: functional
Klebsiella pneumoniae = assay: Synergistic antibacterial activity against Klebsiella pneumoniae 116381 in presence of moxifloxacin by Checkerboard assay; format: functional, organism-based
Pseudomonas aeruginosa [30] = assay: Potentiation of levofloxacin-induced antibacterial activity against wild type Pseudomonas aeruginosa PAO1 assessed as levofloxacin MIC measured after 18 hrs by CLSI protocol based microbroth dilution method (reference value: 0.5 ug/ml); format: functional
Pseudomonas aeruginosa [31] = assay: Potentiation of minocycline-induced antibacterial activity against wild type Pseudomonas aeruginosa PAO1 measured after 18 hrs by CLSI protocol based microbroth dilution method; format: functional, organism-based
Pseudomonas aeruginosa [32] = assay: Synergistic antibacterial activity against multidrug resistant Pseudomonas aeruginosa PA101885 in presence of ciprofloxacin by Checkerboard assay; format: functional, organism-based
Pseudomonas aeruginosa [33] = assay: Potentiation of rifampicin-induced antibacterial activity against wild type Pseudomonas aeruginosa PAO1 measured after 18 hrs by CLSI protocol based microbroth dilution method; format: functional, organism-based

## C[C@H]1COc2c(N3CCN(C)CC3)c(F)cc3c(=O)c(C(=O)NCCCCCCCCCCCC(=O)N[C@@H](CCN)C(=O)N[C@@H](CCN)C(N)=O)cn1c23
Pseudomonas aeruginosa [1]
  Activity: Active
Pseudomonas aeruginosa [2]
  Activity: Active
Acinetobacter baumannii [3]
  MIC: > 128 µg/mL
Escherichia coli [4]
  Activity: Active
Pseudomonas aeruginosa [5]
  Ratio: 4
Pseudomonas aeruginosa [6]
  MIC: 0.031 µg/mL
Pseudomonas aeruginosa [7]
  Activity: Active
Escherichia coli [8]
  Activity: Active
Streptococcus pneumoniae
  MIC: > 128 µg/mL
Pseudomonas aeruginosa [9]
  Activity: Active
Escherichia coli [10]
  MIC: 64 µg/mL (≈ 84.4 µM)
Pseudomonas aeruginosa [11]
  Activity: Active
Escherichia coli [12]
  Activity: Active
Pseudomonas aeruginosa [13]
  MIC: 0.25 µg/mL
Pseudomonas aeruginosa [14]
  Activity: Active
Enterococcus faecalis
  MIC: > 128 µg/mL
Pseudomonas aeruginosa [15]
  Activity: Active
Escherichia coli [16]
  Activity: Active
[17]
  MIC: 64 µg/mL (≈ 84.4 µM)
Acinetobacter baumannii [18]
  fractional inhibitory concentration index (FICI): 0.37
Pseudomonas aeruginosa [19]
  fractional inhibitory concentration index (FICI): 0.5
Pseudomonas aeruginosa [20]
  Activity: inactive
Staphylococcus aureus [21]
  MIC: 128 µg/mL (≈ 169 µM)
Pseudomonas aeruginosa [22]
  Activity: Active
Staphylococcus aureus [23]
  MIC: > 128 µg/mL
Escherichia coli [24]
  Activity: Active
Pseudomonas aeruginosa [25]
  Activity: Active
Pseudomonas aeruginosa [26]
  Activity: Active
Pseudomonas aeruginosa [27]
  Activity: Active
[28]
  MIC: > 128 µg/mL
Pseudomonas aeruginosa [29]
  Ratio: 4
Klebsiella pneumoniae
  Activity: Active
Pseudomonas aeruginosa [30]
  MIC: 0.063 µg/mL
Pseudomonas aeruginosa [31]
  Activity: Active
Pseudomonas aeruginosa [32]
  Activity: Active
Pseudomonas aeruginosa [33]
  Activity: Active
